# Patent US9462805B2, “Herbicide-resistant proteins, encoding genes, and uses thereof” (Beijing Dabeinong Technology Group Co., Ltd., priority 2012, dated 2016)
# Legend:
# [1] = system: Arabidopsis T1 plants transformed with added 24DT02 nucleotide sequence; assay: Herbicide resistance effect test of transgenic Arabidopsis T1 plants (24DT02-a); type: in vivo, Arabidopsis thaliana; conditions: number of T1 plants, genotype 24DT02-a, 560 g ae/ha sprayed; for Moderately resistant: curly rosette leaves 7 days after spraying; for Non-resistant: dead 14 days after spraying; for Highly resistant: growth consistent with blank solvent 7 days after spraying; for Lowly resistant: incapable of bolting 14 days after spraying
# Experimental: On 7 days after planting (DAP) and 11 DAP respectively, the T1 plants (cotyledon stage and 2-4 leaves stage, respectively) were sprayed with 0.2% of Liberty herbicide solution (200 g ai/L glufosinate-ammonium) using DeVilbiss compressed air nozzle at a spraying volume of 10 ml/disc (703 L/ha) so as to provide effective amount of glufosinate-ammonium (280 g ai/ha) for each application. The survival plants (actively growing plants) were verified 4 to 7 days after the last spraying and transferred into the square pot (7 cm×7 cm) made from vermiculite and horses dung (3-5 plants per pot). The transplanted plants were covered with moisturizing mask for 3-4 days and placed in culture room at 22° C. or directly into the greenhouse as described above. Then the mask was removed and the plants were planted in greenhouse (22±5° C., 50±30% RH, 14 hours of lighting: 10 hours of darkness, minimum […] natural light+complement light) at least one day before testing the ability of 24DT02 to provide the resistance to phenoxy auxin herbicide.
# 24DT02 gene was used to transform Arabidopsis for the first time. At first, T1 transformants were selected from the background of un-transformed seeds, using glufosinate-ammonium selection scheme. About 40000 T1 seeds were screened among which 195 strains of T1 generation positive transformants (PAT gene) were identified, i.e. the transformation efficiency was about 0.5%. Herbicide resistance effect tests to 2,4-D dimethyl ammonium salt and agroxone of Arabidopsis T1 plants transformed with 24DT02 nucleotide sequence, substituted 24DT02 nucleotide sequence, truncated 24DT02 nucleotide sequence, added 24DT02 nucleotide sequence, control nucleotide sequence respectively and wild-type Arabidopsis plants were performed after 18 days of planting.
# Arabidopsis T1 plants transformed with 24DT02 nucleotide sequence, substituted 24DT02 nucleotide sequence, truncated 24DT02 nucleotide sequence, added 24DT02 nucleotide sequence and control nucleotide sequence respectively and wild-type Arabidopsis plants were sprayed with 2,4-D dimethyl ammonium salt (560 g ae/ha, 1-fold concentration in field), agroxone (560 g ae/ha, 1-fold concentration in field) and blank solvent (water). Resistance conditions of the plants were counted 7 days and 14 days after spraying. Plants with growth conditions consistent with blank solvent (water) 7 days after spaying were classified as highly resistant plants; Plants with curly rosette leaves 7 days after spaying were classified as moderately resistant plants; Plants incapable of bolting 14 days after spaying were classified as low-resistant plants and the dead plants 14 days after spaying were classified as non-resistant plants. Because each Arabidopsis T1 plant was an independent transformation event, significant differences of individual T1 responses were expected under a given dose.
# [2] = system: corn plants transfected with 24DT02 added nucleotide sequence; assay: Herbicide-resistance effect test of transgenic corn plants (added 24DT02; strains S8, S9); type: in vivo, maize; conditions: 8960 g ae/ha sprayed, 21 days after spraying; for Abnormal development of prop roots / Normal development of prop roots: number of plants
# Experimental: (§1) Herbicide resistance effects tests to 2,4-D dimethyl ammonium salt and agroxone of maize plants containing 24DT02 nucleotide sequence, 24DT02 substituted nucleotide sequence, 24DT02 truncated nucleotide sequence, 24DT02 added nucleotide sequence, control nucleotide sequence respectively and wild type maize plants (stages V3-V4) were performed respectively.
# (§2) Maize plants containing 24DT02 nucleotide sequence, 24DT02 substituted nucleotide sequence, 24DT02 truncated nucleotide sequence, 24DT02 added nucleotide sequence, control nucleotide sequence respectively and wild type maize plants were taken and spayed with 2,4-D dimethyl ammonium salt (8960 g ae/ha, 16-folds concentration in field), agroxone (8960 g ae/ha, 16-folds concentration in field) and blank solvent (water) respectively. Prop root development was counted 21 days after spaying. Three strains (S1, S2, and S3) of corn plants transfected with 24DT02 nucleotide sequence, two strains (S4 and S5) of corn plants transfected with 24DT02 substituted nucleotide sequence, two strains (S6 and S7) of corn plants transfected with 24DT02 truncated nucleotide sequence, two strains (S8 and S9) of corn plants transfected with 24DT02 added nucleotide sequence, two strains (S10 and S11) of corn plants transfected with control nucleotide sequence and 1 strain of wild type (CK) corn were selected and 10-15 plants from each stain were tested.
# [3] = system: corn plants transfected with 24DT02 substituted nucleotide sequence; assay: Herbicide-resistance effect test of transgenic corn plants (substituted 24DT02; strains S4, S5); type: in vivo, maize; conditions: 8960 g ae/ha sprayed, 21 days after spraying; for Abnormal development of prop roots / Normal development of prop roots: number of plants
# Experimental: as §1, §2
# [4] = system: corn plants transfected with control nucleotide sequence; assay: Herbicide-resistance effect test of corn plants (control sequence; strains S10, S11); type: in vivo, maize; conditions: 8960 g ae/ha sprayed, 21 days after spraying; for Abnormal development of prop roots / Normal development of prop roots: number of plants
# Experimental: as §1, §2
# [5] = system: wild-type Arabidopsis plants; assay: Herbicide resistance effect test of wild-type Arabidopsis plants; type: in vivo, Arabidopsis thaliana; conditions: number of plants, genotype Wild, 560 g ae/ha sprayed; for Moderately resistant: curly rosette leaves 7 days after spraying; for Non-resistant: dead 14 days after spraying; for Highly resistant: growth consistent with blank solvent 7 days after spraying; for Lowly resistant: incapable of bolting 14 days after spraying
# Source text: 24DT02 gene was used to transform Arabidopsis for the first time. At first, T1 transformants were selected from the background of un-transformed seeds, using glufosinate-ammonium selection scheme. About 40000 T1 seeds were screened among which 195 strains of T1 generation positive transformants (PAT gene) were identified, i.e. the transformation efficiency was about 0.5%. Herbicide resistance effect tests to 2,4-D dimethyl ammonium salt and agroxone of Arabidopsis T1 plants transformed with 24DT02 nucleotide sequence, substituted 24DT02 nucleotide sequence, truncated 24DT02 nucleotide sequence, added 24DT02 nucleotide sequence, control nucleotide sequence respectively and wild-type Arabidopsis plants were performed after 18 days of planting. Arabidopsis T1 plants transformed with 24DT02 nucleotide sequence, substituted 24DT02 nucleotide sequence, truncated 24DT02 nucleotide sequence, added 24DT02 nucleotide sequence and control nucleotide sequence respectively and wild-type Arabidopsis plants were sprayed with 2,4-D dimethyl ammonium salt (560 g ae/ha, 1-fold concentration in field), agroxone (560 g ae/ha, 1-fold concentration in field) and blank solvent (water). Resistance conditions of the plants were counted 7 days and 14 days after spraying. Plants with growth conditions consistent with blank solvent (water) 7 days after spaying were classified as highly resistant plants; Plants with curly rosette leaves 7 days after spaying were classified as moderately resistant plants; Plants incapable of bolting 14 days after spaying were classified as low-resistant plants and the dead plants 14 days after spaying were classified as non-resistant plants. Because each Arabidopsis T1 plant was an independent transformation event, significant differences of individual T1 responses were expected under a given dose.
# [6] = corn strain S4 (substituted 24DT02)
# [7] = corn strain S5 (substituted 24DT02)
# [8] = corn strain S10 (control sequence)
# [9] = corn strain S11 (control sequence)
Structure (SMILES),Moderately resistant [1],Non-resistant [1],Highly resistant [1],Lowly resistant [1],Ratio of the normally developed prop roots ([2]; corn strain S8 (added 24DT02)) [%],Ratio of the normally developed prop roots ([2]; corn strain S9 (added 24DT02)) [%],Abnormal development of prop roots ([2]; corn strain S8 (added 24DT02)),Normal development of prop roots ([2]; corn strain S8 (added 24DT02)),Abnormal development of prop roots ([2]; corn strain S9 (added 24DT02)),Normal development of prop roots ([2]; corn strain S9 (added 24DT02)),"Ratio of the normally developed prop roots [3, 6] [%]","Ratio of the normally developed prop roots [3, 7] [%]","Abnormal development of prop roots [3, 6]","Normal development of prop roots [3, 6]","Abnormal development of prop roots [3, 7]","Normal development of prop roots [3, 7]","Ratio of the normally developed prop roots [4, 8] [%]","Ratio of the normally developed prop roots [4, 9] [%]","Abnormal development of prop roots [4, 8]","Normal development of prop roots [4, 8]",also measured
"CNC.O=C(O)COc1ccc(Cl)cc1Cl [2,4-D dimethyl ammonium salt]",3,3,10,2,80.00,78.57,3,12,3,11,87.50,100.00,2,14,0,15,0,0,10,0,"Abnormal development of prop roots [4, 9]: 11; Normal development of prop roots [4, 9]: 0; Moderately resistant [5]: 0; Non-resistant [5]: 20; Highly resistant [5]: 0; Lowly resistant [5]: 0"
Cc1cc(Cl)ccc1OCC(=O)O [agroxone],5,3,8,1,86.67,84.62,2,13,2,11,81.25,93.33,3,13,1,14,0,0,10,0,"Abnormal development of prop roots [4, 9]: 10; Normal development of prop roots [4, 9]: 0; Moderately resistant [5]: 0; Non-resistant [5]: 16; Highly resistant [5]: 0; Lowly resistant [5]: 0"
